# According to patent US10414763B2 (CANCER RESEARCH TECHNOLOGY LIMITED, priority 2014, dated 2019):
# Target: T1, full-length human PKCι (Homo sapiens, UniProt P41743)
# T1 construct: Recombinant, full-length human PKCι expressed in Sf21 insect cells is also commercially available; purchased EMD Millipore; host or cells: Sf21 insect cells (baculovirus)
# T1 sequence (P41743 1-596): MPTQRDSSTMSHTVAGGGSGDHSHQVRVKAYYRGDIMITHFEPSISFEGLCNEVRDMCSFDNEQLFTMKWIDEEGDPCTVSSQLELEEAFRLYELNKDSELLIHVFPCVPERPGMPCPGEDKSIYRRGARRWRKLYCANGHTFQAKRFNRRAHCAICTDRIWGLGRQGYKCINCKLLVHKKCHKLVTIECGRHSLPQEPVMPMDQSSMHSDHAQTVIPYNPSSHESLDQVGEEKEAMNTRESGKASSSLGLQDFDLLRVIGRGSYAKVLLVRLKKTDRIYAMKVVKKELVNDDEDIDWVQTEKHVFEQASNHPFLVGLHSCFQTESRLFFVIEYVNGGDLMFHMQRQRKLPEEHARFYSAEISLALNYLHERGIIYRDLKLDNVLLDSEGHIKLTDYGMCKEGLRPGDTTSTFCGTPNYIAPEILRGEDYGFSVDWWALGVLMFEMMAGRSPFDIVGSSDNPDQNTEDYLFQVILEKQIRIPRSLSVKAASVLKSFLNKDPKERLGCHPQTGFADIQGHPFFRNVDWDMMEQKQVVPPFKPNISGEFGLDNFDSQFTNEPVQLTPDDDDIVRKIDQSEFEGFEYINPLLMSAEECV
# Assay: PKCι IC50 IMAP fluorescence polarisation assay, full-length enzyme, 150 μM ATP
# Assay type: biochemical
# Conditions: read-out: IC50 in IMAP assay against full length PKCi at 150 μM ATP
# Outline: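 IMAP fluorescence polarisation kinase assay: 15 pM baculovirus-expressed human PKCiota with 100 nM FAM-pseudosubstrate peptide and 150 μM ATP, 1 h at 25 °C. IMAP detection reagent then 2 h at 25 °C before FP measurement. Inhibition referenced to no-compound and no-enzyme controls for IC50 fitting.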
row,IC50 [nM],Structure (SMILES)
1,< 100,"CC1(C)CNCC[C@@H]1Nc1nc(-c2ccnc(Nc3ncc(Cl)cc3F)c2)nc2cncc(C3CC3)c12 [Example 319, {2-[2-(5-Chloro-3-fluoro-pyridin-2-ylamino)-pyridin-4-yl]-5-cyclopropyl-pyrido[3,4-d]pyrimidin-4-yl}-((S)-3,3-dimethyl-piperidin-4-yl)-amine]"
2,< 100,"CC1(C)CNCC[C@@H]1Nc1nc(-c2ccnc(Nc3ncc(C#N)cc3F)c2)nc2cncc(C3CCC3)c12 [Example 320, 6-{4-[5-Cyclobutyl-4-((S)-3,3-dimethyl-piperidin-4-ylamino)-pyrido[3,4-d]pyrimidin-2-yl]-pyridin-2-ylamino}-5-fluoro-nicotinonitrile]"
3,100 to 1000,"CC1(C)CNCC[C@@H]1Nc1nc(-c2cccc(Nc3ccccn3)c2)nc2cncc(C3CCC3)c12 [Example 321, {5-Cyclobutyl-2-[3-(pyridin-2-ylamino)-phenyl]-pyrido[3,4-d]pyrimidin-4-yl}-((S)-3,3-dimethyl-piperidin-4-yl)-amine]"
4,< 100,"Cc1cc(C#N)cnc1Nc1cc(-c2nc(N[C@H]3CCNCC3(C)C)c3c(C4CCC4)cncc3n2)ccn1 [Example 323, 6-{4-[5-Cyclobutyl-4-((S)-3,3-dimethyl-pipcridin-4-ylamino)-pyrido[3,4-d]pyrimidin-2-yl]-pyridin-2-ylamino}-5-methyl-nicotinonitrile]"
5,1000 to 10000,"CC1(C)CNCC[C@@H]1Nc1nc(-c2cccc(Nc3cnccn3)c2)nc2cncc(C3CCC3)c12 [Example 324, 5-Cyclobutyl-N-[(4S)-3,3-dimethyl-4-piperidyl]-2-[3-(pyrazin-2-ylamino)phenyl]pyrido[3,4-d]pyrimidin-4-amine]"
6,< 100,"CC1(C)CNCC[C@@H]1Nc1nc(-c2ccnc(Nc3nc(F)cc(F)c3F)c2)nc2cncc(C3CC3)c12 [Example 325, 5-Cyclopropyl-N-[(4S)-3,3-dimethyl-4-piperidyl]-2-[2-[(3,4,6-trifluoro-2-pyridyl)amino]-4-pyridyl]pyrido[3,4-d]pyrimidin-4-amine]"
7,< 100,"CC1(C)CNCC[C@@H]1Nc1nc(-c2ccnc(Nc3nc(F)cc(F)c3F)c2)nc2cncc(C3CCC3)c12 [Example 326, 5-Cyclobutyl-N-[(4S)-3,3-dimethyl-4-piperidyl]-2-[2-[(3,4,6-trifluoro-2-pyridyl)amino]-4-pyridyl]pyrido[3,4-d]pyrimidin-4-amine]"
8,< 100,"CC1(C)CNCC[C@@H]1Nc1nc(-c2ccnc(Nc3nc4ccccc4o3)c2)nc2cncc(C3CC3)c12 [Example 327, N-[4-[5-Cyclopropyl-4-[[(4S)-3,3-dimethyl-4-piperidyl]amino]pyrido[3,4-d]pyrimidin-2-yl]-2-pyridyl]-1,3-benzoxazol-2-amine]"
9,< 100,"CC1(C)CNCC[C@@H]1Nc1nc(-c2ccnc(Nc3cc4ccccn4n3)c2)nc2cncc(C3CC3)c12 [Example 328, 5-Cyclopropyl-N-[(4S)-3,3-dimethyl-4-piperidyl]-2-[2-(pyrazolo[1,5-a]pyridin-2-ylamino)-4-pyridyl]pyrido[3,4-d]pyrimidin-4-amine]"
10,< 100,"CC1(C)CNCC[C@@H]1Nc1nc(-c2ccnc(Nc3ncn(-c4ccccc4)n3)c2)nc2cncc(C3CCC3)c12 [Example 329, 5-Cyclobutyl-N-[(4S)-3,3-dimethyl-4-piperidyl]-2-[2-[(1-phenyl-1,2,4-triazol-3-yl)amino]-4-pyridyl]pyrido[3,4-d]pyrimidin-4-amine]"
11,< 100,"c1ccc(-n2cnc(Nc3cc(-c4nc(N5CCNCC5)c5c(C6CCC6)cncc5n4)ccn3)n2)cc1 [Example 330, 4-(5-Cyclobutyl-4-piperazin-1-yl-pyrido[3,4-d]pyrimidin-2-yl)-N-(1-phenyl-1,2,4-triazol-3-yl)pyridin-2-amine]"
12,< 100,"CC1(C)CNCC[C@@H]1Nc1nc(-c2ccnc(Nc3nc4ccc(F)cc4o3)c2)nc2cncc(C3CC3)c12 [Example 332, N-[4-[5-Cyclopropyl-4-[[(4S)-3,3-dimethyl-4-piperidyl]amino]pyrido [3,4-d]pyrirnidin-2-yl]-2-pyridyl]-6-fluoro-1,3-benzoxazol-2-amine]"
13,< 100,"CC1(C)CNCC[C@@H]1Nc1nc(-c2ccnc(Nc3ncc(C#N)cc3F)c2)nc2cncc(C3CC3)c12 [Example 333, 6-[[4-[5-Cyclopropyl-4-[[(4S)-3,3-dimethyl-4-piperidyl]amino]pyrido[3,4-d]pyrimidin-2-yl]-2-pyridyl]amino]-5-fluoro-pyridine-3-carbonitrile]"
14,< 100,"CC1(C)CNCC[C@@H]1Nc1nc(-c2ccnc(Nc3ncccc3Cl)c2)nc2cncc(C3CCC3)c12 [Example 336, 2-[2-[(3-Chloro-2-pyridyl)amino]-4-pyridyl]-5-cyclobutyl-N-[(4S)-3,3-dimethyl-4-piperidyl]pyrido [3,4-d]pyrimidin-4-amine]"
15,< 100,"CC1(C)CNCC[C@@H]1Nc1nc(-c2ccnc(Nc3ncc(Cl)cc3Cl)c2)nc2cncc(C3CCC3)c12 [Example 337, 5-Cyclobutyl-2-[2-[(3,5-dichloro-2-pyridyl)amino]-4-pyridyl]-N-[(4S)-3,3-dimethyl-4-piperidyl]pyrido[3,4-d]pyrimidin-4-amine]"
16,< 100,"CC1(C)CNCC[C@@H]1Nc1nc(-c2ccnc(Nc3nc4ccc(F)cc4o3)c2)nc2cncc(C3CCC3)c12 [Example 338, N-[4-[5-Cyclobutyl-4-[[(4S)-3,3-dimethyl-4-piperidyl]amino]pyrido [3,4-d]pyrimidin-2-yl]-2-pyridyl]-6-fluoro-1,3-benzoxazol-2-amine]"
17,100 to 1000,"CC1(C)CNCC[C@@H]1Nc1nc(-c2ccnc(Nc3ncccc3Cl)c2)nc2cncc(C3CC3)c12 [Example 339, 2-[2-[(3-Chloro-2-pyridyl)amino]-4-pyridyl]-5-cyclopropyl-N-[(4S)-3,3-dimethyl-4-piperidyl]pyrido[3,4-d]pyrimidin-4-amine]"
18,< 100,"CC1(C)CNCC[C@@H]1Nc1nc(-c2ccnc(Nc3ncc(Cl)cc3Cl)c2)nc2cncc(C3CC3)c12 [Example 340, 5-Cyclopropyl-2-[2-[(3,5-dichloro-2-pyridyl)amino]-4-pyridyl]-N-[(4S)-3,3-dimethyl-4-piperidyl]pyrido[3,4-d]pyrimidin-4-amine]"
19,< 100,"FC(F)(F)c1cncc2nc(-c3ccnc4[nH]c5ccccc5c34)nc(NC3CCNCC3)c12 [Example 348, Piperidin-4-yl-[2-(9H-pyrido[2,3-b]indol-4-yl)-5-trifluoromethyl-pyrido[3,4-d]pyrimidin-4-yl]-amine]"
20,< 100,"CC1(C)CNCC[C@@H]1Nc1nc(-c2ccnc3[nH]c(C(=O)NC4CCCCC4)cc23)nc2cncc(C3CC3)c12 [Example 355, 4-[5-Cyclopropyl-4-((S)-3,3-dimethyl-piperidin-4-ylamino)-pyrido[3,4-d]pyrimidin-2-yl]-1H-pyrrolo[2,3-b]pyridine-2-carboxylic acid cyclohexylamide]"
21,< 100,"c1cncc(-c2cc3c(-c4nc(N5CCC6CNCCC65)c5c(C6CC6)cncc5n4)ccnc3[nH]2)c1 (centres unmarked) [Example 356, 5-Cyclopropyl-4-(octahydro-pyrrolo[3,2-c]pyridin-1-yl)-2-(2-pyridin-3-yl-1H-pyrrolo[2,3-b]pyridin-4-yl)-pyrido[3,4-d]pyrimidine]"
22,< 100,"COCc1ccccc1-c1cc2c(-c3nc(N[C@H]4CCNCC4(C)C)c4c(C5CC5)cncc4n3)ccnc2[nH]1 [Example 357, {5-Cyclopropyl-2-[2-(2-methoxymethyl-phenyl)-1H-pyrrolo[2,3-b]pyridin-4-yl]-pyrido[3,4-d]pyrimidin-4-yl}-((S)-3,3-dimethyl-piperidin-4-yl)-amine]"
23,< 100,"Fc1ccc(Cl)c(-c2cc3c(-c4nc(N5CCOC6CNCC65)c5c(C6CC6)cncc5n4)ccnc3[nH]2)c1 (centres unmarked) [Example 360, 2-[2-(2-Chloro-5-fluoro-phenyl)-1H-pyrrolo[2,3-b]pyridin-4-yl]-5-cyclopropyl-4-(hexahydro-pyrrolo[3,4-b][1,4]oxazin-4-yl)-pyrido[3,4-d]pyrimidine]"
24,< 100,"CC1(C)CNCC[C@@H]1Nc1nc(-c2ccnc3[nH]c(-c4cc(F)ccc4F)cc23)nc2cncc(C3CC3)c12 [Example 361, {5-Cyclopropyl-2-[2-(2,5-difluoro-phenyl)-1H-pyrrolo[2,3-b]pyridin-4-yl]-pyrido[3,4-d]pyrimidin-4-yl}-((S)-3,3-dimethyl-piperidin-4-yl)-amine]"
25,< 100,"Cc1cncc(-c2cc3c(-c4nc(N[C@H]5CCNCC5(C)C)c5c(C6CC6)cncc5n4)ccnc3[nH]2)c1 [Example 362, {5-Cyclopropyl-2-[2-(5-methyl-pyridin-3-yl)-1H-pyrrolo[2,3-b]pyridin-4-yl]-pyrido[3,4-d]pyrimidin-4-yl}-((S)-3,3-dimethyl-piperidin-4-yl)-amine]"

row,Structure (SMILES),IC50 [nM]
1,"CN(c1nc(-c2ccnc(Nc3nc(F)ccc3F)c2)nc2cncc(C3CC3)c12)[C@H]1CCNCC1(C)C [Example 331, 5-Cyclopropyl-2-[2-[(3,6-difluoro-2-pyridyl)amino]-4-pyridyl]-N-[(4S)-3,3-dimethyl-4-piperidyl]-N-methyl-pyrido[3,4-d]pyrimidin-4-amine]",< 100
